In patent US12667572B2, “Tricyclic compounds useful in the treatment of cancer, autoimmune and inflammatory disorders” (SCHRÖDINGER, INC., priority 2021, dated 2026):

Tests used:
[1] = biological target: T1, full-length MALT1 protein His-MALT1(1-824) (Homo sapiens, UniProt Q9UDY8); experiment: MALT1 protease assay, Assay 1 (2 nM MALT1, Ac-LRSR-AMC substrate); assay type: biochemical; details: 2 nM MALT1, 50 μM Ac-LRSR-AMC, 2 h pre-incubation, 8 hr incubation at RT
T1 construct: full-length MALT1 protein His-MALT1(1-824); His (N); made in house; host or cells: baculovirus-infected insect cells
T1 sequence (Q9UDY8 1-824): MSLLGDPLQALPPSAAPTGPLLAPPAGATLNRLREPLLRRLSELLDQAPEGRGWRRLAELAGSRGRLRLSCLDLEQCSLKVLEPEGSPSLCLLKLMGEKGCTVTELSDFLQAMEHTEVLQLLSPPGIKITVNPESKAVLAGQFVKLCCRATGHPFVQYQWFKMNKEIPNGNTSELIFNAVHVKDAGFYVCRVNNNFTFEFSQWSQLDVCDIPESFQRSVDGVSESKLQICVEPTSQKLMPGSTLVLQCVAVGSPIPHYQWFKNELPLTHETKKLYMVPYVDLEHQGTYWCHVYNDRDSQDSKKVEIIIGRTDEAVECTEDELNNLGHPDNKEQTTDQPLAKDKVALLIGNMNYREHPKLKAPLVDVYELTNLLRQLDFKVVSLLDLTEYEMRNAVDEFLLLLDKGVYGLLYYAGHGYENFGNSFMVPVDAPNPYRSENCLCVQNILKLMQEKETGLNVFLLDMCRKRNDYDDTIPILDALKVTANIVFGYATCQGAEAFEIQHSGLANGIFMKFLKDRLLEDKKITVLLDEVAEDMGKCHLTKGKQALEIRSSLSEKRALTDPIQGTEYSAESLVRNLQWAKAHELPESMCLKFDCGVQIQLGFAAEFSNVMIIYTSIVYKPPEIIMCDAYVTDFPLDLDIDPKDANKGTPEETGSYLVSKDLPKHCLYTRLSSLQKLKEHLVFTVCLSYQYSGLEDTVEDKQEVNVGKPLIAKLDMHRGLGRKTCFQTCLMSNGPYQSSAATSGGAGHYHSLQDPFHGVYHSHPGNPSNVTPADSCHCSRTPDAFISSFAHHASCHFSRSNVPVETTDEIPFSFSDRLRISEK
Method in brief: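 Compounds (0.1% DMSO final) sat 2 h at RT with insect-cell-expressed His-MALT1(1-824), in 50 mM Tris pH 7.5, 600 mM sodium citrate, 1 mM DTT, 1 mM EDTA, 0.05% BSA. Cleavage of 50 μM Ac-LRSR-AMC (Km ~100 μM) ran 8 h at RT, read as AMC fluorescence. IC50 and Hill coefficient fitted to % remaining activity.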

[2] = test system: IL10 secretion in OCI-LY10 cells; experiment: Human IL10 secretion assay, Assay 1 (HTRF); assay type: cell-based; details: 24 h incubation, read-out: IL-10 Secretion IC50 [nM] Assay 1
Method: IL10 is one of the cytokines that are regulated via activation of NF-kB signaling. For example, in ABC-DLBCL cell lines, the activated NF-kB signaling leads to increased IL10 secretion. Inhibition of NF-kB signaling has been shown leading to decreased IL10 secretion.
Assay 1: OCI-LY10 cells were seeded in IMEM supplemented with 20% fetal bovine serum at 3×10^5 cells per well in 96-well round bottom plates (Corning 3799, Corning), treated with 100 nL of 3-fold serial compound dilutions, starting at 10 mM. The final vehicle concentration was 0.1% DMSO in all wells. After 24 h incubation, the cells were transferred to 96-PCR plates (Axygen: PCR-96-FLT-C) and centrifuged, then 16 μL of cell culture media was transferred to HTRF plates and IL10 levels were measured using human IL-10 Assay Kits (Cisbio) using HTRF format. The signals were transformed to percentage of remaining activity by using the high control (HC, median of signal from wells containing cells treated with DMSO) and low control (LC, median of signal from wells with no cells). IC50 values (nM) were determined using 4-parametric curve-fitting and Hill coefficient obtained using Graph Pad Prism (Graph Pad software, Inc, USA) with non-linear regression analysis.

Compound | IC50 [1] [nM] | IC50 [2] [nM]
Cn1cnc(-c2ncc(NC(=O)C3CC(C)(C)c4c3cnc3cc(Cl)nn43)cc2Cl)c1 (single isomer, unassigned) [Example 35, 2-chloro-N-(5-chloro-6-(1-methyl-1H-imidazol-4-yl)pyridin-3-yl)-8,8-dimethyl-7,8-dihydro-6H-cyclopenta[e]pyrazolo[1,5-a]pyrimidine-6-carboxamide] | 10 to 100 | ≥ 1000
C[C@@]1(C(F)(F)F)C[C@H](C(=O)Nc2cnc(-n3nccn3)c(Cl)c2)c2cnc3cc(Cl)nn3c21 (single isomer, unassigned) [Example 36, 2-chloro-N-(5-chloro-6-(2H-1,2,3-triazol-2-yl)pyridin-3-yl)-8-methyl-8-(trifluoromethyl)-7,8-dihydro-6H-cyclopenta[e]pyrazolo[1,5-a]pyrimidine-6-carboxamide] | < 10 | 100 to 1000
CC1(C)CC(C(=O)Nc2cnc(-n3nccn3)c(Cl)c2)c2cnc3cc(C#N)nn3c21 (single isomer, unassigned) [Example 4, N-(5-chloro-6-(2H-1,2,3-triazol-2-yl)pyridin-3-yl)-2-cyano-8,8-dimethyl-7,8-dihydro-6H-cyclopenta[e]pyrazolo[1,5-a]pyrimidine-6-carboxamide] | 10 to 100 | 100 to 1000
C[C@]1(C(F)(F)F)C[C@H](C(=O)Nc2cnc(-n3nccn3)c(Cl)c2)c2cnc3cc(Cl)nn3c21 (single isomer, unassigned) [Example 38, 2-chloro-N-(5-chloro-6-(2H-1,2,3-triazol-2-yl)pyridin-3-yl)-8-methyl-8-(trifluoromethyl)-7,8-dihydro-6H-cyclopenta[e]pyrazolo[1,5-a]pyrimidine-6-carboxamide] | < 10 | 100 to 1000
CC1(C)C[C@H](C(=O)Nc2cnc([C@H]3CCCO3)c(Cl)c2)c2cnc3cc(Cl)nn3c21 (single isomer, unassigned) [Example 29, 2-chloro-N-(5-chloro-6-(tetrahydrofuran-2-yl)pyridin-3-yl)-8,8-dimethyl-7,8-dihydro-6H-cyclopenta[e]pyrazolo[1,5-a]pyrimidine-6-carboxamide] | 10 to 100 | 100 to 1000
CC1(C)CC(C(=O)Nc2cnc(-n3nccn3)c(Cl)c2)c2cnc3cc(Cl)nn3c21 (single isomer, unassigned) [Example 2, 2-chloro-N-(5-chloro-6-(2H-1,2,3-triazol-2-yl)pyridin-3-yl)-8,8-dimethyl-7,8-dihydro-6H-cyclopenta[e]pyrazolo[1,5-a]pyrimidine-6-carboxamide] | < 10 | 100 to 1000
CC1(C)CC(C(=O)Nc2cnc(-n3ncc(CO)n3)c(Cl)c2)c2cnc3cc(Cl)nn3c21 (single isomer, unassigned) [Example 31, 2-chloro-N-(5-chloro-6-(4-(hydroxymethyl)-2H-1,2,3-triazol-2-yl)pyridin-3-yl)-8,8-dimethyl-7,8-dihydro-6H-cyclopenta[e]pyrazolo[1,5-a]pyrimidine-6-carboxamide] | < 10 | 100 to 1000
CC1(C)CC(C(=O)Nc2cnc(-n3nccn3)c(Cl)c2)c2cnc3cc(C(F)F)nn3c21 (single isomer, unassigned) [Example 25, N-(5-chloro-6-(2H-1,2,3-triazol-2-yl)pyridin-3-yl)-2-(difluoromethyl)-8,8-dimethyl-7,8-dihydro-6H-cyclopenta[e]pyrazolo[1,5-a]pyrimidine-6-carboxamide] | 10 to 100 | 100 to 1000
CCc1cc2ncc3c(n2n1)C(C)(C)CC3C(=O)Nc1cnc(-n2nccn2)c(Cl)c1 (single isomer, unassigned) [Example 21, N-(5-chloro-6-(2H-1,2,3-triazol-2-yl)pyridin-3-yl)-2-ethyl-8,8-dimethyl-7,8-dihydro-6H-cyclopenta[e]pyrazolo[1,5-a]pyrimidine-6-carboxamide] | 10 to 100 | ≥ 1000
